PMC2974439 (Biochemistry, 2010)

Legend:
EntF+YbdZ = EntF+YbdZ (Escherichia coli, UniProt P11454); assay: substrate activation assay; format: biochemical; settings: co-purified with YbdZ; two values for two different preparations
EntF (EntF-H6) = EntF (EntF-H6) (Escherichia coli, UniProt P11454); assay: substrate activation assay; format: biochemical; settings: without YbdZ; two values for two different preparations
H6-CmnO = assay: co-purification after co-expression
[1] = substrate: O=C(O)c1cccc(O)c1O; assay: substrate activation assay; format: biochemical, Escherichia coli; settings: without YbdZ

Chain of EntF (EntF-H6) (P11454 whole entry): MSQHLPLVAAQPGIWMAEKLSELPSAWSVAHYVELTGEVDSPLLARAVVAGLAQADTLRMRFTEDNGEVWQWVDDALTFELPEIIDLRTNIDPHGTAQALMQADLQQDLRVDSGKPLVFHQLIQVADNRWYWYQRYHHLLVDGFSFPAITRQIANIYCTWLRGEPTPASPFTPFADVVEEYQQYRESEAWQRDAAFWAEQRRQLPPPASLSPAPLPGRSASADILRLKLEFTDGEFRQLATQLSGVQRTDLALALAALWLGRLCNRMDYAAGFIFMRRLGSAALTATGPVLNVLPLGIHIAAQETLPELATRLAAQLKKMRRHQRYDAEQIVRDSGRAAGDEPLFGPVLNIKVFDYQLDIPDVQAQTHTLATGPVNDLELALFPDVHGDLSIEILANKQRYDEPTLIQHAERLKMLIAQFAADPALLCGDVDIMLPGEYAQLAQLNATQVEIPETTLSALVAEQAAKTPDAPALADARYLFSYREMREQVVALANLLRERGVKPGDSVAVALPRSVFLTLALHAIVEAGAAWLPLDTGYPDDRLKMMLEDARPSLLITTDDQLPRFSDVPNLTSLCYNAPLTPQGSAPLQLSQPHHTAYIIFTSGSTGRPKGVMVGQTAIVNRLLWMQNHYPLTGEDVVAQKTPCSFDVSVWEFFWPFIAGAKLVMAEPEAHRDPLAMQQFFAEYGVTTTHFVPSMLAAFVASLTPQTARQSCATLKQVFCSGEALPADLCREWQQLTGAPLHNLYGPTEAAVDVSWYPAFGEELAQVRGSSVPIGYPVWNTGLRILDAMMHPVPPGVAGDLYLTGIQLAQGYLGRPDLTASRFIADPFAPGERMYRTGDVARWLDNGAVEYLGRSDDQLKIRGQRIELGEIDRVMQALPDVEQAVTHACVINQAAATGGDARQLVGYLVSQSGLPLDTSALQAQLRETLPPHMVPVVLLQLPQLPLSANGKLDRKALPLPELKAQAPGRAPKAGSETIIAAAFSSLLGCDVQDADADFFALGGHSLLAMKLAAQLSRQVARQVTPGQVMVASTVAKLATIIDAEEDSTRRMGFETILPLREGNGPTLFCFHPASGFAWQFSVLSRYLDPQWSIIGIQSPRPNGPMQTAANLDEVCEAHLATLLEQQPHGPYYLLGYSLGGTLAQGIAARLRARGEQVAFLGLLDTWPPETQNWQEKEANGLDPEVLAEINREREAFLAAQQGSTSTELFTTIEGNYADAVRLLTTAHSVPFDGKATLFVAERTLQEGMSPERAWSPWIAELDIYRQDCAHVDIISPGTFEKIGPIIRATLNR
Chain of EntF+YbdZ (P11454 whole entry): as above
Chain of EntF+YbdZ (P18393 2-72 partner limits assumed): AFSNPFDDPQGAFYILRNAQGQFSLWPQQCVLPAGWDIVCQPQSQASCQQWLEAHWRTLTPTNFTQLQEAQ

N[C@@H](CO)C(=O)O [L-Ser]
Km ^a (EntF+YbdZ): 655.9 ± 53.0, 240.1 ± 46.7 μM
Km ^a (EntF (EntF-H6)): 7162.1 ± 413.5, 4589.5 ± 313.0 μM

CmnN (natural protein)
stoichiometry N (mol CmnN per mol H6-CmnO) (H6-CmnO): 0.42

B1: EntE (H6-EntE) (Escherichia coli K-12) (protein)
chain: MSIPFTRWPEEFARRYREKGYWQDLPLTDILTRHAASDSIAVIDGERQLSYRELNQAADNLACSLRRQGIKPGETALVQLGNVAELYITFFALLKLGVAPVLALFSHQRSELNAYASQIEPALLIADRQHALFSGDDFLNTFVTEHSSIRVVQLLNDSGEHNLQDAINHPAEDFTATPSPADEVAYFQLSGGTTGTPKLIPRTHNDYYYSVRRSVEICQFTQQTRYLCAIPAAHNYAMSSPGSLGVFLAGGTVVLAADPSATLCFPLIEKHQVNVTALVPPAVSLWLQALIEGESRAQLASLKLLQVGGARLSATLAARIPAEIGCQLQQVFGMAEGLVNYTRLDDSAEKIIHTQGYPMCPDDEVWVADAEGNPLPQGEVGRLMTRGPYTFRGYYKSPQHNASAFDANGFYCSGDLISIDPEGYITVQGREKDQINRGGEKIAAEEIENLLLRHPAVIYAALVSMEDELMGEKSCAYLVVKEPLRAVQVRRFLREQGIAEFKLPDRVECVDSLPLTAVGKVDKKQLRQWLASRASA
Km [1]: 2.9 ± 0.4 µM
